# Test results taken from patent US4311699A, “Aminoacid derivatives of cephalosporin compounds” (priority 1980, dated 1982).
# What was measured:
# Assay in all cases: in vitro antibacterial activity, minimal inhibitory concentration
# Type in all cases: cell-based
# E. coli Brig = conditions: for MIC: Escherichia coli
# Text: (§1) The compounds of the invention are new chemical compounds that are used as pharmacological agents and especially as broad spectrum antibacterial agents. They are active in vitro against strains of both gram-positive and gram-negative bacteria.
# (§2) Minimal Inhibitory Concentration (μg/ml)
# E. coli Vogel = conditions: for MIC: Escherichia coli
# Text: as §1, §2
# Entero. cloacae = conditions: for MIC: Enterobacter cloacae
# Text: as §1, §2
# Klebs. pneu. = tested on: Klebs. pneu.
# Text: as §1, §2
# Prot. vulg. = tested on: Prot. vulg.
# Text: as §1, §2
# Pseudomonas #28 = conditions: Pseudomonas #28, in vitro; for MIC: read-out: Minimal Inhibitory Concentration
# Text: as §1, §2
# Pseudomonas BRK 12-4-4 = conditions: Pseudomonas BRK 12-4-4, in vitro; for MIC: BRK1244
# Text: as §1, §2
# Pseudomonas UI 18 = conditions: Pseudomonas UI 18, in vitro; for MIC: UI18
# Text: as §1, §2
# Serr. marces. = tested on: Serr. marces.
# Text: as §1, §2
# Staph. aureus S18733 = conditions: for MIC: Staphylococcus aureus
# Text: as §1, §2
# Staph. aureus UC-76 = conditions: Staph. aureus UC-76, in vitro; for MIC: Staphylococcus aureus, UC76
# Text: as §1, §2
# Strep. fec. = tested on: Strep. fec.
# Text: as §1, §2
smiles,measurement,setting,value
"CC(=O)NC(C)C(=O)Nc1ccc(-c2ncc(C(=O)N[C@@H](C(=O)NC3C(=O)N4C(C(=O)O)=C(CSc5nnnn5C)CSC34)c3ccccc3)c(O)n2)cc1 (mixture of isomers) [Example 24, N-[2-[4-(N-Acetyl-DL-alanylamino)phenyl]-4-hydroxy-5-pyrimidinylcarbonyl]-7-[D-2-amino-2-phenylacetamido]-3-[[(1-methyl-1H-tetrazol-5-yl)thio]methyl]-3-cephem-4-carboxylic acid]",MIC,E. coli Brig,12.5 µg/mL
same,MIC,E. coli Vogel,3.1 µg/mL
same,MIC,Entero. cloacae,12.5 µg/mL
same,MIC,Klebs. pneu.,1.6 µg/mL
same,MIC,Prot. vulg.,25 µg/mL
same,MIC,Pseudomonas #28,6.3 µg/mL
same,MIC,Pseudomonas BRK 12-4-4,12.5 µg/mL
same,MIC,Pseudomonas UI 18,6.3 µg/mL
same,MIC,Serr. marces.,50 µg/mL
same,MIC,Staph. aureus S18733,3.1 µg/mL
same,MIC,Staph. aureus UC-76,1.6 µg/mL
same,MIC,Strep. fec.,50 µg/mL
"CC(=O)NC(C)C(=O)Nc1ccc(-c2ncc(C(=O)N[C@@H](C(=O)NC3C(=O)N4C(C(=O)O)=C(CSc5nnnn5C)CSC34)c3ccc(O)cc3)c(O)n2)cc1 (mixture of isomers) [Example 32, N-[2-[4-(N-Acetyl-DL-alanylamino)phenyl]-4-hydroxy-5-pyrimidinylcarbonyl]-7-[D-2-amino-2-(4-hydroxyphenyl)acetamido]-3-[[(1-methyl-1H-tetrazol-5-yl)thio]methyl]-3-cephem-4-carboxylic acid]",MIC,E. coli Brig,6.3 µg/mL
same,MIC,E. coli Vogel,1.6 µg/mL
same,MIC,Entero. cloacae,6.3 µg/mL
same,MIC,Klebs. pneu.,1.6 µg/mL
same,MIC,Prot. vulg.,12.5 µg/mL
same,MIC,Pseudomonas #28,3.1 µg/mL
same,MIC,Pseudomonas BRK 12-4-4,6.3 µg/mL
same,MIC,Pseudomonas UI 18,6.3 µg/mL
same,MIC,Serr. marces.,> 50 µg/mL
same,MIC,Staph. aureus S18733,6.3 µg/mL
same,MIC,Staph. aureus UC-76,3.1 µg/mL
same,MIC,Strep. fec.,50 µg/mL
"CC(=O)NC(C)C(=O)Nc1ccc(-c2ncc(C(=O)N[C@@H](C(=O)NC3C(=O)N4C(C(=O)O)=C(CSc5nnnn5CC(=O)O)CSC34)c3ccccc3)c(O)n2)cc1 (mixture of isomers) [Example 35, N-[2-[4-(N-Acetyl-DL-alanylamino)phenyl]-4-hydroxy-5-pyrimidinylcarbonyl]-7-[D-2-phenylacetamido-3-[[(1-carboxymethyl-1H-tetrazol-5-yl)thio]methyl]-3-cephem-4-carboxylic acid]",MIC,E. coli Brig,6.3 µg/mL
same,MIC,E. coli Vogel,3.1 µg/mL
same,MIC,Entero. cloacae,6.3 µg/mL
same,MIC,Klebs. pneu.,6.3 µg/mL
same,MIC,Prot. vulg.,3.1 µg/mL
same,MIC,Pseudomonas #28,6.3 µg/mL
same,MIC,Pseudomonas BRK 12-4-4,12.5 µg/mL
same,MIC,Pseudomonas UI 18,12.5 µg/mL
same,MIC,Serr. marces.,50 µg/mL
same,MIC,Staph. aureus S18733,25 µg/mL
same,MIC,Staph. aureus UC-76,12.5 µg/mL
same,MIC,Strep. fec.,> 50 µg/mL
"CC(=O)NC(C)C(=O)Nc1ccc(-c2ncc(C(=O)N[C@@H](C(=O)NC3C(=O)N4C(C(=O)O)=C(CSc5nnc(C)s5)CSC34)c3ccccc3)c(O)n2)cc1 (mixture of isomers) [Example 40, N-[2-[4-(N-Acetyl-DL-alanylamino)phenyl]-4-hydroxy-5-pyrimidinylcarbonyl]-7-[D-2-amino-2-phenylacetamido]-3-[[(5-methyl-1,3,4-thiadiazoyl-2-thio]methyl]-3-cephem-4-carboxylic acid]",MIC,E. coli Brig,12.5 µg/mL
same,MIC,E. coli Vogel,3.1 µg/mL
same,MIC,Entero. cloacae,25 µg/mL
same,MIC,Klebs. pneu.,3.1 µg/mL
same,MIC,Prot. vulg.,50 µg/mL
same,MIC,Pseudomonas #28,12.5 µg/mL
same,MIC,Pseudomonas BRK 12-4-4,12.5 µg/mL
same,MIC,Pseudomonas UI 18,6.3 µg/mL
same,MIC,Serr. marces.,50 µg/mL
same,MIC,Staph. aureus S18733,3.1 µg/mL
same,MIC,Staph. aureus UC-76,0.4 µg/mL
same,MIC,Strep. fec.,25 µg/mL
"CC(=O)N[C@H](C)C(=O)Nc1ccc(-c2ncc(C(=O)N[C@@H](C(=O)N[C@@H]3C(=O)N4C(C(=O)O)=C(COC(C)=O)CS[C@H]34)c3ccccc3)c(O)n2)cc1 [Example 1, N-[2-[4-(N-Acetyl-D-alanylamino)phenyl]-4-hydroxy-5-pyrimidinyl-carbonyl]-7-[D-2-amino-2-phenylacetamido]-3-acetoxymethyl-3-cephem-4-carboxylic acid]",MIC,E. coli Brig,25 µg/mL
same,MIC,E. coli Vogel,6.3 µg/mL
same,MIC,Entero. cloacae,50 µg/mL
same,MIC,Klebs. pneu.,200 µg/mL
same,MIC,Prot. vulg.,12.5 µg/mL
same,MIC,Pseudomonas #28,3.1 µg/mL
same,MIC,Pseudomonas BRK 12-4-4,3.1 µg/mL
same,MIC,Pseudomonas UI 18,3.1 µg/mL
same,MIC,Serr. marces.,12.5 µg/mL
same,MIC,Staph. aureus S18733,3.1 µg/mL
same,MIC,Staph. aureus UC-76,0.8 µg/mL
same,MIC,Strep. fec.,50 µg/mL
"CC(=O)NC(C)(C)C(=O)Nc1ccc(-c2ncc(C(=O)N[C@@H](C(=O)N[C@@H]3C(=O)N4C(C(=O)O)=C(COC(C)=O)CS[C@H]34)c3ccccc3)c(O)n2)cc1 [Example 2, N-[2-[4-(N-Acetyl-alpha-aminoisobutyrylamino)phenyl)-4-hydroxy-5-pyrimidinylcarbonyl]-7-[D-2-amino-2-phenylacetamido]-3-acetoxymethyl-3-cephem-4-carboxylic acid]",MIC,E. coli Brig,50 µg/mL
same,MIC,E. coli Vogel,25 µg/mL
same,MIC,Entero. cloacae,50 µg/mL
same,MIC,Klebs. pneu.,25 µg/mL
same,MIC,Prot. vulg.,25 µg/mL
same,MIC,Pseudomonas #28,1.6 µg/mL
same,MIC,Pseudomonas BRK 12-4-4,6.3 µg/mL
same,MIC,Pseudomonas UI 18,3.1 µg/mL
same,MIC,Serr. marces.,> 50 µg/mL
same,MIC,Staph. aureus S18733,12.5 µg/mL
same,MIC,Staph. aureus UC-76,3.1 µg/mL
same,MIC,Strep. fec.,> 50 µg/mL
CC(=O)NCCC(=O)Nc1ccc(-c2ncc(C(=O)N[C@@H](C(=O)N[C@@H]3C(=O)N4C(C(=O)O)=C(COC(C)=O)CS[C@H]34)c3ccccc3)c(O)n2)cc1 [Example 3],MIC,E. coli Brig,25 µg/mL
same,MIC,E. coli Vogel,12.5 µg/mL
same,MIC,Entero. cloacae,50 µg/mL
same,MIC,Klebs. pneu.,12.5 µg/mL
same,MIC,Prot. vulg.,12.5 µg/mL
same,MIC,Pseudomonas #28,6.3 µg/mL
same,MIC,Pseudomonas BRK 12-4-4,12.5 µg/mL
same,MIC,Pseudomonas UI 18,6.3 µg/mL
same,MIC,Serr. marces.,< 50 µg/mL
same,MIC,Staph. aureus S18733,6.3 µg/mL
same,MIC,Staph. aureus UC-76,1.6 µg/mL
same,MIC,Strep. fec.,50 µg/mL
"CC(=O)N[C@@H](C)C(=O)Nc1ccc(-c2ncc(C(=O)N[C@@H](C(=O)N[C@@H]3C(=O)N4C(C(=O)O)=C(COC(C)=O)CS[C@H]34)c3ccccc3)c(O)n2)cc1 [Example 10, N-[2-[4-(N-Acetyl-L-alanylamino)phenyl]-4-hydroxy-5-pyrimidinylcarbonyl]-7-[D-2-amino-2-phenylacetamido]-3-acetoxy-methyl-3-cephem-4-carboxylic acid]",MIC,E. coli Brig,25 µg/mL
same,MIC,E. coli Vogel,12.5 µg/mL
same,MIC,Entero. cloacae,50 µg/mL
same,MIC,Klebs. pneu.,25 µg/mL
same,MIC,Prot. vulg.,25 µg/mL
same,MIC,Pseudomonas #28,6.3 µg/mL
same,MIC,Pseudomonas BRK 12-4-4,12.5 µg/mL
same,MIC,Pseudomonas UI 18,6.3 µg/mL
same,MIC,Serr. marces.,> 50 µg/mL
same,MIC,Staph. aureus S18733,6.3 µg/mL
same,MIC,Staph. aureus UC-76,3.1 µg/mL
same,MIC,Strep. fec.,50 µg/mL
"CC(=O)N[C@H](C)C(=O)Nc1ccc(-c2ncc(C(=O)N[C@@H](C(=O)N[C@@H]3C(=O)N4C(C(=O)O)=C(COC(C)=O)CS[C@H]34)c3ccc(O)cc3)c(O)n2)cc1 [Example 11, N-[2-[4-(N-Acetyl-D-alanylamino)phenyl]-4-hydroxy-5-pyrimidinylcarbonyl]-7-[D-2-amino-2-(4-hydroxyphenyl)-acetamido]-3-acetoxymethyl-3-cephem-4-carboxylic acid]",MIC,E. coli Brig,50 µg/mL
same,MIC,E. coli Vogel,6.3 µg/mL
same,MIC,Entero. cloacae,50 µg/mL
same,MIC,Klebs. pneu.,25 µg/mL
same,MIC,Prot. vulg.,12.5 µg/mL
same,MIC,Pseudomonas #28,3.1 µg/mL
same,MIC,Pseudomonas BRK 12-4-4,6.3 µg/mL
same,MIC,Pseudomonas UI 18,6.3 µg/mL
same,MIC,Serr. marces.,> 50 µg/mL
same,MIC,Staph. aureus S18733,25 µg/mL
same,MIC,Staph. aureus UC-76,6.3 µg/mL
same,MIC,Strep. fec.,50 µg/mL
"CC(=O)OCC1=C(C(=O)O)N2C(=O)C(NC(=O)[C@H](NC(=O)c3cnc(-c4ccc(NC(=O)[C@@H]5C[C@@H](O)CN5C(C)=O)cc4)nc3O)c3ccccc3)[C@H]2SC1 (stereo partly drawn) [Example 15, N-[2-[4-(N-Acetyl-L-hydroxyprolylamino)phenyl]-4-hydroxy-5-pyrimidinylcarbonyl]-7-[D-2-amino-2-phenylacetamido]-3-acetoxymethyl-3-cephem-4-carboxylic acid]",Minimal Inhibitory Concentration,E. coli Brig,50 µg/mL
same,Minimal Inhibitory Concentration,E. coli Vogel,6.3 µg/mL
same,Minimal Inhibitory Concentration,Entero. cloacae,> 50 µg/mL
same,Minimal Inhibitory Concentration,Klebs. pneu.,12.5 µg/mL
same,Minimal Inhibitory Concentration,Prot. vulg.,50 µg/mL
same,Minimal Inhibitory Concentration,Pseudomonas #28,3.1 µg/mL
same,Minimal Inhibitory Concentration,Pseudomonas BRK 12-4-4,12.5 µg/mL
same,Minimal Inhibitory Concentration,Pseudomonas UI 18,3.1 µg/mL
same,Minimal Inhibitory Concentration,Serr. marces.,> 50 µg/mL
same,Minimal Inhibitory Concentration,Staph. aureus S18733,6.3 µg/mL
same,Minimal Inhibitory Concentration,Staph. aureus UC-76,1.6 µg/mL
same,Minimal Inhibitory Concentration,Strep. fec.,25 µg/mL
"CC(=O)NCCCC(=O)Nc1ccc(-c2ncc(C(=O)N[C@@H](C(=O)N[C@@H]3C(=O)N4C(C(=O)O)=C(COC(C)=O)CS[C@H]34)c3ccccc3)c(O)n2)cc1 [Example 16, N-[2-[4-(N-Acetyl-γ-aminobutyrylamino)phenyl]-4-hydroxy-5-pyrimidinylcarbonyl]-7-[D-2-amino-2-phenylacetamido]-3-acetoxy-methyl-3-cephem-4-carboxylic acid]",MIC,E. coli Brig,50 µg/mL
same,MIC,E. coli Vogel,6.3 µg/mL
same,MIC,Entero. cloacae,25 µg/mL
same,MIC,Klebs. pneu.,12.5 µg/mL
same,MIC,Prot. vulg.,25 µg/mL
same,MIC,Pseudomonas #28,6.3 µg/mL
same,MIC,Pseudomonas BRK 12-4-4,12.5 µg/mL
same,MIC,Pseudomonas UI 18,12.5 µg/mL
same,MIC,Serr. marces.,> 50 µg/mL
same,MIC,Staph. aureus S18733,3.1 µg/mL
same,MIC,Staph. aureus UC-76,0.8 µg/mL
same,MIC,Strep. fec.,25 µg/mL
"CC(=O)N[C@@H](C(=O)Nc1ccc(-c2ncc(C(=O)N[C@@H](C(=O)N[C@@H]3C(=O)N4C(C(=O)O)=C(COC(C)=O)CS[C@H]34)c3ccccc3)c(O)n2)cc1)C(C)C [Example 17, N-[2-[4-(N-Acetyl-D-valylamino)phenyl]-4-hydroxy-5-pyrimidinylcarbonyl]-7-[D-2-amino-2-phenylacetamido]-3-acetoxymethyl-3-cephem-4-carboxylic acid]",MIC,E. coli Brig,12.5 µg/mL
same,MIC,E. coli Vogel,6.3 µg/mL
same,MIC,Entero. cloacae,25 µg/mL
same,MIC,Klebs. pneu.,12.5 µg/mL
same,MIC,Prot. vulg.,25 µg/mL
same,MIC,Pseudomonas #28,6.3 µg/mL
same,MIC,Pseudomonas BRK 12-4-4,12.5 µg/mL
same,MIC,Pseudomonas UI 18,6.3 µg/mL
same,MIC,Serr. marces.,> 50 µg/mL
same,MIC,Staph. aureus S18733,6.3 µg/mL
same,MIC,Staph. aureus UC-76,1.6 µg/mL
same,MIC,Strep. fec.,50 µg/mL
